In patent US12496281B2, “Compounds for prevention and treatment of hemorrhage and vasculature instability” (Abrexa Pharmaceuticals, Inc., priority 2020, dated 2025):

What was measured:
[1] = system: thromboembolic middle cerebral artery occlusion (MCAO); test: J147+tPA expanded study: infarct volume, intracerebral hemorrhage, mortality (Example 4A); format: in vivo, SD rats
Description: Objective: To determine whether J147 can prevent tPA-associated brain hemorrhage and extend the treatment time window of tPA in a clinically relevant thromboembolic stroke model in rats. • J147 compound: Stock solution: 60 mg/ml DMSO, in 60 ul/vial, stored at −20° C. • Working solution: 3 mg/ml in 5% DMSO, 70% PEG200 and 25% normal saline, prepared prior to injection. • One vial stock solution was warmed at 37° C. and mixed with 1140 ul sterilized solution (PEG200: saline, 2.8:1). • Recombinant human tPA (Alteplase, 2.2 mg/vial): Reconstituted with 1.1 ml water (2 mg/ml). 10 mg/kg, 10% bonus injection, 90%30 min. via mini pump. A. Infarct Volume and Intracerebral Hemorrhage
Methods: Male SD rats (280-300 g) were subjected to thromboembolic middle cerebral artery occlusion (MCAO) and treated with saline at 4 hours, tPA (tissue-type plasminogen activator; 10 mg/kg, IV) at 4 hours, and combined J147 (10 mg/kg, IV) plus tPA at 4 hours after onset of ischemia. Bederson score was examined prior to the sacrifice at 72 h after stroke. Infarct volumes, brain hemorrhage, and animal mortality were measured.

MMP-9 = test: Double immunohistochemistry for MMP-9 expression in the brain after thromboembolic stroke; format: in vivo, rats; conditions: 24 hours after stroke; tPA at 4 h alone or with J147; n=3 animals per group
Description: MMPs, in particular MMP-9, play a critical role in the stroke-associated blood-brain barrier (BBB) disruption, hemorrhagic transformation and neuroinflammation after stroke. Double immunohistochemistry was performed to determine MMP-9 expression in the brain at 24 hours after stroke (FIG. 7A).
(§1) Methods: At the indicated time point, animals were euthanized with CO2 and transcardially perfused with 200 mL ice-cold PBS (0.01 M, pH 7.4) followed by 4% paraformaldehyde (PFA). The brains were removed and post-fixed in 4% PFA solution for overnight at 4° C. Brain samples were then cryoprotected by immersion in 10%, 20%, and 30% gradient sucrose solutions for 48 h at 4° C. respectively. After that, the brains were embedded in optimal cutting temperature (OCT) compound. Coronal sections (15 um) were cut at 0.4 to 1.4 mm posterior to bragma using a cryostat and mounted on positively charged slides. […]
(§2) For quantification, the number of immunoreactive vessels were counted in the ischemic boundary zone. All immunostaining data was analyzed by an investigator blinded to experimental groups using Image Pro plus software (version 5.1, Media Cybernetics, Inc.) and data are presented as the density of immunoreactive vessels relative to the imaged area (mm2) as described. Data were expressed as mean±standard error of the mean (SEM). […]

[2] = system: neutrophil (MPO) infiltration; test: Immunostaining of brain neutrophil (MPO) infiltration after thromboembolic stroke; format: in vivo, rats; conditions: poststroke; delayed tPA alone or with J147; n=3 animals per group
Description: as §1, with “slides. Every twentieth coronal section for a total five sections was used for immunohistochemistry. The primary antibodies: IBa-1 (1:200, Wako), MPO (1:200, Abcam), MMP9 (1:100, R&D), EBA (endothelial barrier antigen, a marker for endothelium in the vessels, 1:500, Covance), fibrinogen (1:200, Dako), thrombocyte (1:200, lifespan) and PAI-1 (1:200, Novus Biologicals) were used.” for “slides.”
as §2

microglia (Iba-1) = test: Immunostaining of microglia (Iba-1) expansion after thromboembolic stroke; format: in vivo, rats; conditions: poststroke; delayed tPA alone or with J147; n=3 animals per group
Description: as §1, with “slides. Every twentieth coronal section for a total five sections was used for immunohistochemistry. The primary antibodies: IBa-1 (1:200, Wako), MPO (1:200, Abcam), MMP9 (1:100, R&D), EBA (endothelial barrier antigen, a marker for endothelium in the vessels, 1:500, Covance), fibrinogen (1:200, Dako), thrombocyte (1:200, lifespan) and PAI-1 (1:200, Novus Biologicals) were used.” for “slides.”
as §2

fibrin/fibrinogen = test: Double immunofluorescence of intravascular fibrin/fibrinogen deposition in brain microvessels; format: in vivo; conditions: stroke rats; delayed tPA alone or with J147
Description: as §1, with “slides. Every twentieth coronal section for a total five sections was used for immunohistochemistry. The primary antibodies: IBa-1 (1:200, Wako), MPO (1:200, Abcam), MMP9 (1:100, R&D), EBA (endothelial barrier antigen, a marker for endothelium in the vessels, 1:500, Covance), fibrinogen (1:200, Dako), thrombocyte (1:200, lifespan) and PAI-1 (1:200, Novus Biologicals) were used.” for “slides.”
as §2

platelets = test: Double immunofluorescence of platelet (thrombocyte) accumulation in brain microvessels; format: in vivo; conditions: stroke rats; delayed tPA alone or with J147
Description: as §1, with “slides. Every twentieth coronal section for a total five sections was used for immunohistochemistry. The primary antibodies: IBa-1 (1:200, Wako), MPO (1:200, Abcam), MMP9 (1:100, R&D), EBA (endothelial barrier antigen, a marker for endothelium in the vessels, 1:500, Covance), fibrinogen (1:200, Dako), thrombocyte (1:200, lifespan) and PAI-1 (1:200, Novus Biologicals) were used.” for “slides.”
as §2

[3] = system: platelet P-selectin (CD62P); test: Flow cytometry of platelet activation (P-selectin) in whole blood after stroke; format: in vivo; conditions: whole blood at 24 hours after ischemia onset; vs saline-treated stroke rats
Description: (§3) Elevated platelet activation and platelet-leukocyte interaction contribute importantly to pro-inflammatory and thrombotic events during ischemia-reperfusion injury after stroke. We used flow cytometry to analyze platelet activation and platelet-leukocyte aggregates in whole blood at 24 hours after ischemia onset (FIG. 9A).
(§4) Methods: Blood was drawn into a heparinized capillary tube via the retro-orbital plexus at 24 h after stroke. Whole blood was diluted 1:10 with Flow Cytometry Staining Buffer (eBioscience) containing rat Fc block anti-rat CD32. For evaluation of platelet activation, sample was co-stained with the FITC mouse anti-rat CD42d (1:200, RPM.4) for platelets and PE/Cy7 mouse anti-rat CD62P (1:100, RMP-1) for P-selectin expression. For detection of platelet-leukocyte aggregates (PLA) formation, samples were co-stained with FITC mouse anti-rat CD42d (1:200, RPM.4), PE mouse anti-rat granulocytes (1:100, RP-1), APC mouse anti-rat CD11b (1:50, WT.5) and PE/Cy7 mouse anti-rat CD45 (1:100, OX-1). Isotype-matched control antibodies were used to differentiate non-specific background signal from specific antibody signals. The samples were analyzed on the BD Accuri™ C6 flow cytometer.

[4] = system: platelet-leukocyte aggregates; test: Flow cytometry of platelet-leukocyte aggregates in whole blood after stroke; format: in vivo; conditions: whole blood at 24 hours after ischemia onset; vs saline-treated stroke rats; n=3 rats per group
Description: as §3, §4

[5] = system: suture-type transient middle cerebral artery occlusion (MCAO) model; test: Suture transient MCAO model, 2 h ischemia, reperfusion 24 h (Example 1); format: in vivo, Sprague Dawley rats; conditions: for infarct volume (TTC staining) relative to placebo: 24 h after reperfusion
Description: In this model, J147 was administered i.v. at doses of 1 mg/kg, 10 mg/kg and 30 mg/kg of total body weight immediately after reperfusion (i.e., about 2 hours after ischemia onset). […] Maximum volume (iv., bolus)=5 ml/kg. (ip., bolus)=10 ml/kg. […] The Bederson scale is a global neurological assessment that was developed to measure neurological impairments following stroke. Tests include forelimb flexion, resistance to lateral push and circling behavior. In this case, a Bederson grading scale of 0-5 was used to assess behavioral deficits after reperfusion. This scoring scale is a simple way to reveal basic neurological deficits.

[6] = system: suture MCAO-induced ischemia followed by reperfusion; test: J147 dose-response, 2-hour suture MCAO followed by reperfusion, 72 h (Example 3); format: in vivo, SD rats
Description: Objective: […] Methods: […] J147 compound (1.0, 10, 30 mg/kg) and vehicle were administered at 2 hours after onset of ischemia (FIG. 5). Bederson score was examined prior to the sacrifice at 72 h after stroke. Infarct volumes in TTC-stained brain coronal sections were measured.

eMCAO, 4 μm blood clot = test: J147 alone in embolic MCAO (eMCAO) model without tPA or reperfusion (Example 5); format: in vivo, SD rats; conditions: J147 alone 1 mg/ml or 10 mg/ml i.v., or 30 mg/ml i.p. two hours after stroke onset; no tPA, no reperfusion; 24 hours after stroke
Description: In this example, an eMCAO experiment was performed to determine if J147 alone (i.e., without administration of TPA or other thrombolytic intervention) provided any therapeutic benefit for stroke in the absence of reperfusion caused by TPA.

[7] = tPA 10 mg/kg IV at 4 hours, alone or with J147 10 mg/kg IV, 72 h after stroke
[8] = J147 1.0, 10, 30 mg/kg at 2 hours after onset of ischemia, 72 h after stroke, dose-dependent, vs vehicle

Compound | brain hemorrhage / hemorrhagic transformation [1, 7] | brain infarction / infarct volume [1, 7] | mortality rate ([1]; treatment at 4 h after onset of ischemia, log-rank test, saline 25%) [%] | Death (number of rats) ([1]; treatment at 4 h after onset of ischemia, tPA n = 22, J147 plus tPA n = 17, saline 3 of 12) | MMP-9 expression on individual cells and brain microvessels (MMP-9) | neutrophil (MPO positive cells) infiltration into the brain parenchyma [2] | microglia expansion (number of Iba-1-positive cells) (microglia (Iba-1)) | fibrin/fibrinogen deposited in downstream microvessels (fibrin/fibrinogen) | platelets deposited in downstream microvessels (platelets) | platelet activation (platelet P-selectin expression) [3] | platelet-granulocyte (platelet-neutrophil) aggregates [4] | infarct volume (TTC staining) relative to placebo ([5]; 1 mg/kg J147 iv) | infarct volume (TTC staining) relative to placebo ([5]; 10 mg/kg J147 iv) | infarct volume (TTC staining) relative to placebo ([5]; J147 intraperitoneally) | optimal effective dose ([5]; iv, immediately after reperfusion, doses tested 1, 10 and 30 mg/kg) [mg/kg] | infarct volumes [6, 8] | neurological deficit (Bederson score) [6, 8] | effective optimal dose ([6]; treatment of acute ischemic stroke in rats, doses tested 1.0, 10, 30 mg/kg) [mg/kg] | protection from stroke (infarct volume, TTC staining) (eMCAO, 4 μm blood clot)
tPA: Recombinant human tPA (Alteplase), tissue-type plasminogen activator; thrombolytic approved for the treatment of stroke | worsened | did not decrease | 32 | 7 | further increased | further augmented | no significant effect | markedly increased | markedly increased | no additional effect | no additional effect |  |  |  |  |  |  |  | 
COc1cccc(/C=N/N(C(=O)C(F)(F)F)c2ccc(C)cc2C)c1 [Compound J147] |  |  |  |  |  |  |  |  |  |  |  | insignificant reduction | large reduction | modest reduction | 10 | significantly reduced | significantly reduced | 10 | fails to provide any significant protection
